Measurements from US12655116B2, “Substituted isophthalic acid diamides” (Bayer Aktiengesellschaft, priority 2020, dated 2026).

Experiments:
[1] = system: AVEFA; test: Post-emergence herbicidal action against AVEFA; format: in vivo, Avena fatua; details: Avena fatua, 504 h, visual assessment about 3 weeks after treatment, 100% = plants have died, 0% = like control plants
Outline: (§1)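 Weeds in sandy loam soil received a post-emergence spray at the one-leaf stage. Compounds were applied as WP or EC in water, 600 to 800 l/ha, with 0.2% wetting agent. Activity in % was judged visually after roughly 3 weeks against untreated plants.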

[2] = system: AMARE; test: Post-emergence herbicidal action against AMARE; format: in vivo, Amaranthus retroflexus; details: Amaranthus retroflexus, 504 h, 80 g/ha, visual assessment about 3 weeks after treatment, 100% = plants have died, 0% = like control plants
Outline: as §1

[3] = system: DIGSA; test: Pre-emergence herbicidal action against DIGSA; format: in vivo, Digitaria sanguinalis; details: Digitaria sanguinalis, 504 h
Outline: (§2)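 Visual rating at 3 weeks vs untreated pots; 0–100% scale, 100% = plants died. Treatment: aqueous WP/EC spray onto covering soil, 600–800 l/ha, 0.2% wetter, seeds in sandy loam.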

[4] = system: POLCO; test: Post-emergence herbicidal action against POLCO; format: in vivo, Polygonum convolvulus; details: Fallopia convolvulus, 504 h, dosage 80 g/ha
Outline: as §1

[5] = system: SETVI; test: Pre-emergence herbicidal action against SETVI; format: in vivo, Setaria viridis; details: Setaria viridis, 504 h
Outline: as §2

[6] = system: AMARE; test: Pre-emergence herbicidal action against AMARE; format: in vivo, Amaranthus retroflexus; details: Amaranthus retroflexus, 504 h, 100% = plants have died, 0% = like control plants
Outline: as §2

[7] = system: STEME; test: Pre-emergence herbicidal action against STEME; format: in vivo, Stellaria media; details: Stellaria media, 504 h
Outline: as §2

[8] = system: VIOTR; test: Pre-emergence herbicidal action against VIOTR; format: in vivo, Viola tricolor; details: Viola tricolor, 504 h, dosage 320 g/ha
Outline: as §2

[9] = system: ECHCG; test: Post-emergence herbicidal action against ECHCG; format: in vivo, Echinochloa crus-galli; details: Echinochloa crus-galli, 504 h
Outline: as §1

[10] = system: ECHCG; test: Pre-emergence herbicidal action against ECHCG; format: in vivo, Echinochloa crus-galli; details: Echinochloa crus-galli, 504 h, 320 g/ha
Outline: as §2

[11] = system: ABUTH; test: Post-emergence herbicidal action against ABUTH; format: in vivo, Abutilon theophrasti; details: Abutilon theophrasti, 504 h, visual assessment about 3 weeks after treatment vs untreated controls
Outline: as §1

[12] = system: MATIN; test: Pre-emergence herbicidal action against MATIN; format: in vivo, Matricaria inodora; details: Tripleurospermum inodorum, 504 h
Outline: as §2

[13] = system: DIGSA; test: Post-emergence herbicidal action against DIGSA; format: in vivo, Digitaria sanguinalis; details: Digitaria sanguinalis, 504 h
Outline: as §1

[14] = system: HORMU; test: Pre-emergence herbicidal action against HORMU; format: in vivo, Hordeum murinum; details: Hordeum murinum, 504 h; 320 g/ha, pre-emergence
Outline: as §2

[15] = system: ABUTH; test: Pre-emergence herbicidal action against ABUTH; format: in vivo, Abutilon theophrasti; details: Abutilon theophrasti, 504 h
Outline: as §2

[16] = system: STEME; test: Post-emergence herbicidal action against STEME; format: in vivo, Stellaria media; details: Stellaria media, 504 h
Outline: as §1

## CNC(=O)c1c(C(F)(F)F)ccc(C(=O)Nc2nnc(C)o2)c1SC [Example 6-58]
[1]; 20 g/ha
  pest or weed control at 20 g/ha: 80%
[1]; 80 g/ha
  pest or weed control at 80 g/ha: 90%
[2]
  pest or weed control at 80 g/ha: 90%
[3]; dosage 80 g/ha
  pest or weed control at 80 g/ha: 100%
[3]; dosage 320 g/ha
  pest or weed control at 320 g/ha: 100%
[4]
  pest or weed control at 80 g/ha: 100%
[5]; dosage 80 g/ha
  pest or weed control at 80 g/ha: 100%
[5]; dosage 320 g/ha
  pest or weed control at 320 g/ha: 100%
[6]; 80 g/ha, scored visually after 3 weeks vs untreated controls
  pest or weed control at 80 g/ha: 100%
[6]; 320 g/ha, scored visually after 3 weeks
  pest or weed control at 320 g/ha: 100%
[7]; dosage 80 g/ha
  pest or weed control at 80 g/ha: 90%
[7]; dosage 320 g/ha
  pest or weed control at 320 g/ha: 90%
[8]
  pest or weed control at 320 g/ha: 90%
[9]; dosage 20 g/ha
  pest or weed control at 20 g/ha: 90%
[9]; dosage 80 g/ha
  pest or weed control at 80 g/ha: 90%
[10]
  pest or weed control at 320 g/ha: 100%
[11]; dosage 20 g/ha
  pest or weed control at 20 g/ha: 80%
[11]; dosage 80 g/ha
  pest or weed control at 80 g/ha: 80%
[12]; dosage 80 g/ha
  pest or weed control at 80 g/ha: 80%
[12]; dosage 320 g/ha
  pest or weed control at 320 g/ha: 100%
[13]; 20 g/ha
  pest or weed control at 20 g/ha: 80%
[13]; 80 g/ha
  pest or weed control at 80 g/ha: 90%
[14]
  pest or weed control at 320 g/ha: 90%
[15]; 80 g/ha, scored visually after 3 weeks vs untreated controls (100% = plants have died, 0% = like control plants)
  pest or weed control at 80 g/ha: 100%
[15]; Dosage: 320 g/ha, scored visually after 3 weeks, 100% = plants have died, 0% = like control plants
  pest or weed control at 320 g/ha: 100%
[16]; 20 g/ha
  pest or weed control at 20 g/ha: 80%
[16]; 80 g/ha
  pest or weed control at 80 g/ha: 80%
